No end group written: not given here.
Legend:
[1] = target: T1, ACE (protease from rabbit lung) (Oryctolagus cuniculus, UniProt P12822); test: ACE inhibiting activity (in vitro tests), HHL substrate, HPLC; format: biochemical; details: HEPES pH 8.3, 37°C, 30 min
T1 construct: ACE (protease from rabbit lung); purchased Sigma Chemical Co., St. Louis, MO, USA; host or cells: rabbit lung (tissue-derived)
T1 sequence (P12822 34-1310): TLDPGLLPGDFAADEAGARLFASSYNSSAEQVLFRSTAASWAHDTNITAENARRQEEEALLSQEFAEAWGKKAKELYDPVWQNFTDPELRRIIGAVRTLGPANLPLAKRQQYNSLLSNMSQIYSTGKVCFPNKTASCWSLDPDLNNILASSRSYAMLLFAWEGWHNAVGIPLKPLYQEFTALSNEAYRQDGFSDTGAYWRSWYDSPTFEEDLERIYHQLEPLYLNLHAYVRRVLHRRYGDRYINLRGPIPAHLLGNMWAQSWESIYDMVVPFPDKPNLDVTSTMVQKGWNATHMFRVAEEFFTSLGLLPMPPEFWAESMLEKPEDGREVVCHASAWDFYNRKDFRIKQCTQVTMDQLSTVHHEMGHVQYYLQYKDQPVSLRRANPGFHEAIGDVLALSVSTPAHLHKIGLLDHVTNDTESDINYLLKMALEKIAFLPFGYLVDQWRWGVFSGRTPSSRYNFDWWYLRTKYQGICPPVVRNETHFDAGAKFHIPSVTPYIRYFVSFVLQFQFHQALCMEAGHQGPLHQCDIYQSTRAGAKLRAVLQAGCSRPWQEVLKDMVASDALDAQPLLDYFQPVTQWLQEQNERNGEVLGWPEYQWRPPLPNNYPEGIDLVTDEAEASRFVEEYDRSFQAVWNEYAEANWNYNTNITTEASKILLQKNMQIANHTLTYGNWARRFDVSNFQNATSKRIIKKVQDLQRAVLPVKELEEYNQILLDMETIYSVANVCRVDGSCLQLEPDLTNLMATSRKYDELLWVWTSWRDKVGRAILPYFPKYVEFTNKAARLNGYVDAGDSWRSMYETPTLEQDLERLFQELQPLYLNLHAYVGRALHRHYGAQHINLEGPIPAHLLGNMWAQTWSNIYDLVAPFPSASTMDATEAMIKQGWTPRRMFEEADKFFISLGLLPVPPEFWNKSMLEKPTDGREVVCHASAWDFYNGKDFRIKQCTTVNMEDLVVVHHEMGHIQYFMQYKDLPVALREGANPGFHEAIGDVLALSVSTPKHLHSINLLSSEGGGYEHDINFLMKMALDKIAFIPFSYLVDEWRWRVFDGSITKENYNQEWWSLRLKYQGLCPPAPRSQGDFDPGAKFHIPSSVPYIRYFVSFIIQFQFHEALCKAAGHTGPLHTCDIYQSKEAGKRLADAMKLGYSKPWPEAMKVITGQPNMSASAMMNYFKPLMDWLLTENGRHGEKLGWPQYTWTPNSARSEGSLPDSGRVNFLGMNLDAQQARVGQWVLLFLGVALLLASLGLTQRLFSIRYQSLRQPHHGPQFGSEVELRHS
From the text: PPI was purchased from Lanshan Group (Shandong, China). The following commercial enzymes were obtained: Alcalase (protease)-(Novo Industri A/S, Bagsvaerd, Denmark); N120P (protease)-(Kerry Co., Tralee, Ireland) and ACE (protease from rabbit lung)-(Sigma Chemical Co., St. Louis, MO, USA). Hippuryl-histidyl-leucine (HHL) was purchased from Sigma Chemical Co. (St. Louis, MO, USA). Methyl Cyanide (Merck & Co., Inc., Rahway, NJ, USA) and trifluoroacetic acid (TFA) (Fluka Co., Buchs, Switzerland) were purchased and were of chromatographic grade. All the other materials were of analytical grade and were used as received.
Determination of ACE inhibiting activity (in vitro tests)
ACE inhibiting activity was measured using Cushman and Cheung’s method with slight modification, [34]. Specifically, 20 µL of 4-hydroxyethylpiperazine ethane sulfonic acid (HEPEs) buffer solution (pH 8.3) was mixed with 20 µL sample solution in a 0.5 ml centrifuge tube. Then, 15 µL ACE solution was added into this tube and warmed at 37°C for 3 min. […]
The ACE inhibiting activity (%) was expressed in terms of hippuric acid content and was calculated using (1). […]
The dried peanut peptide powder having molecule weight below 1 kDa was first dissolved in water to make a peptide solution with 100 mg/ml concentration. […] The IC50 of each fraction was determined as in vitro tests.

ACE = system: ACE; design: method as in 3 sources, ref 52 = [52]; PMID 19886677; doi:10.1021/jf901787e; 52 Guang C , Phillips RD ( 2009 ) Purification, activity and sequence of angiotensin I converting enzyme inhibitory peptide from alcalase hydrolysate of peanut flour . Journal of agricultural and food ||| ref 43 = [43]; PMID 16680798; doi:10.1002/psc.758; 43 Li GH , Wan JZ , Le GW , Shi YH ( 2006 ) Novel angiotensin I-converting enzyme inhibitory peptides isolated from Alcalase hydrolysate of mung bean protein . Journal of Peptide Science 12 : 509 – 51 ||| ref 45 = [45]; 45 Li GH , Le GW , Shi YH , Shrestha S ( 2004 ) Angiotensin I–converting enzyme inhibitory peptides derived from food proteins and their physiological and pharmacological effects . Nutrition Research; details: cited from earlier work; for mode of ACE inhibition: from human serum trypsin hydrolysate
[2] = system: spontaneously hypertensive rats (SHRs); test: Long-term antihypertensive activity in SHRs (28 days, SBP); format: in vivo, rat; details: male SHR, captopril 40 mg/kg BW
Description: The in vivo tests for antihypertensive activity of peanut peptide was conducted using a previous method, and whole tests were conducted in Chinese Medicine Experiment Center of Hubei College of Traditional Chinese Medicine, authorized by SATCM (State Administration of Traditional Chinese Medicine, China). The male spontaneously hypertensive rats (SHRs) was used for the experimental model while the average weight of each rat was between 210 and 240 g and four rats were numbered as one group for feeding. These rats had free access to food and drink in their cages located in a 25°C room temperature with 12 h of light cycle. After 1 week for adaptation to this environment, the determination of blood pressure was conducted and the comparison of different group was investigated. The SHRs were randomly divided into five groups, named blank control group, low-dose group (100 mg/kg body weight (BW)), intermediate-dose group (500 mg/kg BW), high-dose group (1000 mg/kg BW) and drug control group (40 mg Captopril/kg BW).
Long-term antihypertensive activity: Through the same method of sample preparation, these SHRs were feeded at the same time (9∶00 am–10∶00 am) of each day and the feeding continued for 28 days. […] Each SHR was measured for three times. […]

## KLYMRP [Fraction P8, Lys-Leu-Tyr-Met-Arg-Pro]
[1]; printed in parentheses beside the mg/mL value, read-out: IC50 (ACE inhibition)
  IC50: 6.42 µM
[1]; peptide concentration 100 µg/ml, HPLC UV 228 nm
  inhibition at 100 µg/mL: 85.8%

## Leu-Ile-Tyr
ACE
  mode of ACE inhibition: non-competitive

## YLYEIAR
ACE
  mode of ACE inhibition: non-competitive

## VTPALR
ACE; from mung bean protein isolate using alcalase
  IC50: 82.4 µM

## Lys-Ala-Phe-Arg [peanut tetrapeptide of Guang and Phillips]
ACE; peanut tetrapeptide
  ACE inhibiting activity: 16.9 µg/mL

## C[C@H](CS)C(=O)N1CCC[C@H]1C(=O)O [captopril]
[2]
  antihypertensive activity compared with peanut peptide, long term: stronger antihypertensive activity during the long term experiment

From publication PMC4210216, “Isolation, Purification and Molecular Mechanism of a Peanut Protein-Derived ACE-Inhibitory Peptide” (PLoS ONE, 2014)
